The results in this text go back to patent US20100144755A1 (Glaxo Group Limited, priority 2006, published 2010).

The term IC50 denotes the midpoint of a concentration-inhibition curve. What is called melting point is the temperature, or range, at which the solid turns liquid.

Molecules are shown by their SMILES. Structures can show the parent of a compound that is named as a salt. Where only a bound is given, the exact number is not on record here.

One series has as its system influx of neutrophils to the lung in LPS-challenged rats. Description: Rat LPS neutrophilia model. It counts as in vivo. As to conditions: LPS aerosol, intratracheal dosing, in at least one of the range of conditions tested, significance p<0.05. The method in brief: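 Compound given intratracheally (200 ul suspension or dry powder via microsprayer) to isoflurane-anesthetized rats 15 min–24 h before 15 min LPS aerosol (100 ug/ml). Lavage 4 h post-challenge; neutrophils from differential counts. % inhibition versus no-compound controls at a given concentration and pretreat time.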
For `CCCNCCNc1nc(-c2cc(C(=O)NC3CC3)ccc2C)c2ccc(=O)n(-c3c(F)cccc3F)c2n1` [Example 24, N-cyclopropyl-3-(8-(2,6-difluorophenyl)-7-oxo-2-{[2-(propylamino)ethyl]amino}-7,8-dihydropyrido[2,3-d]pyrimidin-4-yl)-4-methylbenzamide], the inhibition of neutrophilia result is reported as “statistically nonsignificant inhibition”.

Take `Cc1ccc(C(=O)NC2CC2)cc1-c1nc(NCCN(C)C)nc2c1ccc(=O)n2-c1c(F)cccc1F` [Example 25]: the inhibition of neutrophilia result was “statistically nonsignificant inhibition”.

Regarding `Cc1ccc(NC(=O)c2ccsc2)cc1-c1nc(N2CCC(N)CC2)nc2c1ccc(=O)n2-c1c(F)cccc1F` [Example 32, N-{3-[2-(4-amino-1-piperidinyl)-8-(2,6-difluorophenyl)-7-oxo-7,8-dihydropyrido[2,3-d]pyrimidin-4-yl]-4-methylphenyl}-3-thiophenecarboxamide], the inhibition of neutrophilia entry is “statistically nonsignificant inhibition”.

Regarding `CCN(CC)CCCNc1nc(-c2cc(C(=O)N[C@H](C)C(C)C)ccc2C)c2ccc(=O)n(-c3c(F)cccc3F)c2n1` [Example 130, 3-[2-{[3-(diethylamino)propyl]amino}-8-(2,6-difluorophenyl)-7-oxo-7,8-dihydropyrido[2,3-d]pyrimidin-4-yl]-N-[(1R)-1,2-dimethylpropyl]-4-methylbenzamide], the inhibition of neutrophilia result was “statistically nonsignificant inhibition”.

The subject of another series is TNF-stimulated IL8 production by human neutrophils. In words: TNF-stimulated IL-8 production from human neutrophils.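 Further: IL-8 in cell-free supernatant quantified by sandwich ELISA, inhibition calculated against a compound-free control.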 Type of series: cell-based. The note with it: Neutrophil, TNF 100 ng/ml, about 20 hrs, bounds reflect the top concentration screened, for 202(c) and 120 a range over multiple runs with ends given as 'greater than'.
Protocol: TNF-Stimulated IL-8 Production from Human Neutrophils
The effect of test compounds on TNF-stimulated IL8 production by human neutrophils is measured as follows. Neutrophils are prepared from blood obtained from consenting donors, using standard methods. Blood is collected in heparinized syringes and layered over histopaque (30 ml/20 ml). Following centrifugation, the red cell pellet is resuspended in PBS and purified over a dextran gradient. […] Cells are added (0.5-1 ml) to 48 well plates already containing compound at 1000× final concentration in neat DMSO or 10% DMSO in RPMI1640 with 10% FBS. TNF (final concentration 100 ng/ml) is used as the stimulus. Cells incubated for approximately 20 hrs at 37° C., 5% CO2. Levels of IL-8 in the cell free supernatant are determined by sandwich ELISA, and inhibition relative to a control with DMPO but no compound is calculated.
In turn, `Cc1ccc(NC(=O)c2ccc(Cl)nc2)cc1-c1nc(NCc2ncc[nH]2)nc2c1ccc(=O)n2-c1c(F)cccc1F` [Example 17, 6-chloro-N-(3-{8-(2,6-difluorophenyl)-2-[(1H-imidazol-2-ylmethyl)amino]-7-oxo-7,8-dihydropyrido[2,3-d]pyrimidin-4-yl}-4-methylphenyl)-3-pyridinecarboxamide] displayed an IC50 of more than 0.1 µM.

`Cc1ccc(NC(=O)c2cn(C)cn2)cc1-c1nc(NC(CO)CO)nc2c1ccc(=O)n2-c1c(F)cccc1F` [Example 51, N-[3-(2,6-difluorophenyl)-2-{[2-hydroxy-1-(hydroxymethyl)ethyl]amino}-7-oxo-7,8-dihydropyrido[2,3-d]pyrimidin-4-yl)-4-methylphenyl]-1-methyl-1H-imidazole-4-carboxamide trifluoroacetate] displayed an IC50 of more than 0.1 µM.

As to `Cc1ccc(NC(=O)CCNC(=O)CCC(=O)O)cc1-c1nc(NC(CO)CO)nc2c1ccc(=O)n2-c1c(F)cccc1F` [Example 52, 4-[(3-{[3-(8-(2,6-difluorophenyl)-2-{[2-hydroxy-1-(hydroxymethyl)ethyl]amino}-7-oxo-7,8-dihydropyrido[2,3-d]pyrimidin-4-yl)-4-methylphenyl]amino}-3-oxopropyl)amino]-4-oxobutanoic acid trifluoroacetate], the half-maximal inhibitory concentration (IC50) is more than 0.1 µM.

As for `Cc1ccc(NC(=O)c2cc[nH]n2)cc1-c1nc(NC(CO)CO)nc2c1ccc(=O)n2-c1c(F)cccc1F` [Example 53, N-[3-8-(2,6-difluorophenyl-2-{[2-hydroxy-1-(hydroxymethyl)ethyl]amino}-7-oxo-7,8-dihydropyrido[2,3-d]pyrimidin-4-yl)-4-methylphenyl]-1H-pyrazole-3-carboxamide trifluoroacetate], the 50% inhibitory concentration (IC50) was more than 0.1 µM.

Take `Cc1ccc(N)cc1-c1nc(NC2CC(C)(C)NC(C)(C)C2)nc2c1ccc(=O)n2-c1c(F)cccc1F` [Example 110, 4-(5-amino-2-methylphenyl)-8-(2,6-difluorophenyl)-2-[(2,2,6,6-tetramethyl-4-piperidinyl)amino]pyrido[2,3-d]pyrimidin-7(8H)-one]: the IC50 is more than 0.1 µM.

As to `Cc1ccc(N)cc1-c1nc(NC2CCNCC2)nc2c1ccc(=O)n2-c1c(F)cccc1F` [Example 111, 4-(5-amino-methylphenyl)-8-(2,6-difluorophenyl)-2-(4-piperidinylamino)-pyrido[2,3-d]pyrimidin-7(8H)-one], the IC50 was more than 0.1 µM.

The molecule `CCN(CC)CCCNc1nc(-c2cc(C(=O)N[C@H](C)C(C)C)ccc2C)c2ccc(=O)n(-c3c(F)cccc3F)c2n1` [Example 130, 3-[2-{[3-(diethylamino)propyl]amino}-8-(2,6-difluorophenyl)-7-oxo-7,8-dihydropyrido[2,3-d]pyrimidin-4-yl]-N-[(1R)-1,2-dimethylpropyl]-4-methylbenzamide] returned a half-inhibitory concentration (IC50) of more than 0.01 µM.

`CCN(CC)CCCNc1nc(-c2cc(C(=O)N[C@@H](C)C(C)C)ccc2C)c2ccc(=O)n(-c3c(F)cccc3F)c2n1` [Example 131, 3-[2-{[3-(diethylamino)propyl]amino}-8-(2,6-difluorophenyl)-7-oxo-7,8-dihydropyrido[2,3-d]pyrimidin-4-yl]-N-[(1S)-1,2-dimethylpropyl]-4-methylbenzamide]: the IC50 was more than 0.01 µM.

In turn, `CCN(CC)CCCNc1nc(-c2cccc(C(=O)Nc3ccc(F)cc3)c2C)c2ccc(=O)n(-c3c(F)cccc3F)c2n1` [Example 152, 3-[2-{[3-(diethylamino)propyl]amino}-8-(2,6-difluorophenyl)-7-oxo-7,8-dihydropyrido[2,3-d]pyrimidin-4-yl]-N-(4-fluorophenyl)-2-methylbenzamide] showed a concentration for half-maximal inhibition (IC50) of more than 0.1 µM.

Molecule `CCCNC(=O)c1cccc(-c2nc(NCCCN(CC)CC)nc3c2ccc(=O)n3-c2c(F)cccc2F)c1C` [Example 153, 3-[2-{[3-(diethylamino)propyl]amino}-8-(2,6-difluorophenyl)-7-oxo-7,8-dihydropyrido[2,3-d]pyrimidin-4-yl]-2-methyl-N-propylbenzamide] registered an IC50 of more than 0.1 µM.

`CCN(CC)CCCNc1nc(-c2cccc(C(=O)NCC(C)C)c2C)c2ccc(=O)n(-c3c(F)cccc3F)c2n1` [Example 154, 3-[2-{[3-(diethylamino)propyl]amino}-8-(2,6-difluorophenyl)-7-oxo-7,8-dihydropyrido[2,3-d]pyrimidin-4-yl]-2-methyl-N-(2-methylpropyl)benzamide] had an IC50 of more than 0.1 µM.

`CCN(CC)CCCNc1nc(-c2cccc(C(=O)NC3CC3)c2C)c2ccc(=O)n(-c3c(F)cccc3F)c2n1` [Example 155, N-cyclopropyl-3-[2-{[3-(diethylamino)propyl]amino}-8-(2,6-difluorophenyl)-7-oxo-7,8-dihydropyrido[2,3-d]pyrimidin-4-yl]-2-methylbenzamide] showed a half-inhibitory concentration (IC50) of more than 0.1 µM.

In turn, `CCN(CC)CCCNc1nc(-c2cccc(C(=O)NCC#N)c2C)c2ccc(=O)n(-c3c(F)cccc3F)c2n1` [Example 156, N-(cyanomethyl)-3-[2-{[3-(diethylamino)propyl]amino}-8-(2,6-difluorophenyl)-7-oxo-7,8-dihydropyrido[2,3-d]pyrimidin-4-yl]-2-methylbenzamide] returned an IC50 of more than 0.1 µM.

For `Cc1ccc(C(=O)NCC(C)(C)C)cc1-c1nc(N2CCC(N3CCC(C)CC3)CC2)nc2c1ccc(=O)n2-c1c(F)cccc1F` [Example 171, 3-[8-(2,6-difluorophenyl)-2-(4-methyl-1,4′-bipiperidin-1′-yl)-7-oxo-7,8-dihydropyrido[2,3-d]pyrimidin-4-yl]-N-(2,2-dimethylpropyl)-4-methylbenzamide], the IC50 is more than 0.1 µM.

`CCN(CC)CCCNc1nc(-c2ccc(C(=O)NC(C)C)cc2)c2ccc(=O)n(-c3c(F)cccc3F)c2n1` [Example 189, 4-[2-{[3-(diethylamino)propyl]amino}-8-(2,6-difluorophenyl)-7-oxo-7,8-dihydropyrido[2,3-d]pyrimidin-4-yl]-N-(1-methylethyl)benzamide] registered a half-maximal inhibitory concentration (IC50) of more than 0.1 µM.

Molecule `CCN(CC)CCCNc1nc(-c2ccc(C(=O)NC3CC3)cc2)c2ccc(=O)n(-c3c(F)cccc3F)c2n1` [Example 190, N-cyclopropyl-4-[2-{[3-(diethylamino)propyl]amino}-8-(2,6-difluorophenyl)-7-oxo-7,8-dihydropyrido[2,3-d]pyrimidin-4-yl]benzamide] yielded a concentration for half-maximal inhibition (IC50) of more than 0.03 µM.

`CCN(CC)CCCNc1nc(-c2ccc(C(=O)Nc3ccc(F)cc3)cc2)c2ccc(=O)n(-c3c(F)cccc3F)c2n1` [Example 191, 4-[2-{[3-(diethylamino)propyl]amino}-8-(2,6-difluorophenyl)-7-oxo-7,8-dihydropyrido[2,3-d]pyrimidin-4-yl]-N-(4-fluorophenyl)benzamide] returned a half-maximal inhibitory concentration (IC50) of more than 0.1 µM.

`CCN(CC)CCCNc1nc(-c2ccc(C(=O)Nc3nccs3)cc2)c2ccc(=O)n(-c3c(F)cccc3F)c2n1` [Example 192, 4-[2-{[3-(diethylamino)propyl]amino}-8-(2,6-difluorophenyl)-7-oxo-7,8-dihydropyrido[2,3-d]pyrimidin-4-yl]-N-1,3-thiazol-2-ylbenzamide] registered an IC50 of more than 0.1 µM.

Test system in a further series: not given
Assay: not given
Details: not given
Molecule `Cc1c(F)cc(C(=O)NC2CC2)cc1-c1nc(NC(CO)CO)nc2c1ccc(=O)n2-c1c(F)cccc1F` [18(e), N-cyclopropyl-3-(8-(2,6-difluorophenyl)-2-{[2-hydroxy-1-(hydroxymethyl)ethyl]amino}-7-oxo-7,8-dihydropyrido[2,3-d]pyrimidin-4-yl)-5-fluoro-4-methylbenzamide] came in with a melting point of 214.2 to 217.5 °C.

As to `Cc1ccc(C(=O)NC2CC2)cc1-c1nc(NC2CC(C)(C)NC(C)(C)C2)nc2c1ccc(=O)n2-c1c(F)cccc1F` [21(c)], the melting point fell in the range of 326.3 to 327.9 °C.

With `Cc1ccc(C(=O)NCc2ccccc2)cc1-c1nc(NCc2ncc[nH]2)nc2c1ccc(=O)n2-c1c(F)cccc1F` [116(c), 3-{8-(2,6-difluorophenyl)-2-[(1H-imidazol-2-ylmethyl)amino]-7-oxo-7,8-dihydropyrido[2,3-d]pyrimidin-4-yl}-4-methyl-N-(phenylmethyl)benzamide], the melting point is 185 to 190 °C (dec.).

`CCCNCCNc1nc(-c2cc(C(=O)NC3CC3)ccc2C)c2ccc(=O)n(-c3c(F)cccc3F)c2n1` [Example 24, N-cyclopropyl-3-(8-(2,6-difluorophenyl)-7-oxo-2-{[2-(propylamino)ethyl]amino}-7,8-dihydropyrido[2,3-d]pyrimidin-4-yl)-4-methylbenzamide] registered a melting point of 120 to 134 °C.

Take `Cc1ccc(C(=O)NC2CC2)cc1-c1nc(NCCN(C)C)nc2c1ccc(=O)n2-c1c(F)cccc1F` [Example 25]: the melting point was in the range of 214.7 to 217.5 °C.

The molecule `Cc1ccc(NC(=O)c2ccsc2)cc1-c1nc(N2CCC(N)CC2)nc2c1ccc(=O)n2-c1c(F)cccc1F` [Example 32, N-{3-[2-(4-amino-1-piperidinyl)-8-(2,6-difluorophenyl)-7-oxo-7,8-dihydropyrido[2,3-d]pyrimidin-4-yl]-4-methylphenyl}-3-thiophenecarboxamide] had a melting point of 183.8 to 187.9 °C.

For the molecule `CCCNC(=O)c1ccc(C)c(-c2nc(NCCN(C)C(=O)OC(C)(C)C)nc3c2ccc(=O)n3-c2c(F)cccc2F)c1` [Example 106, 1,1-dimethylethyl{2-[(8-(2,6-difluorophenyl)-4-{2-methyl-5-[(propylamino)carbonyl]phenyl}-7-oxo-7,8-dihydropyrido[2,3-d]pyrimidin-2-yl)amino]ethyl}methylcarbamate], the melting point lay within 115 to 118 °C.
